In ChEMBL document CHEMBL3352029, “Ring fusion strategy for the synthesis of anthra[2,3-d]oxazole-2-thione-5,10-dione homologues as DNA topoisomerase inhibitors and as antitumor agents” (Eur J Med Chem, 2014):

What was measured:
[1] = Cytotoxicity against human PC3 cells assessed as inhibition of cell growth after 48 hrs by sulforhodamine B assay; type: functional, cell-based; details: PC-3, 48 h
[2] = Cytotoxicity against human Hs 578T cells assessed as cell growth level at 10 uM after 48 hrs by sulforhodamine B assay; type: functional
RXF 393 = experiment: Cytotoxicity against human RXF393 cells assessed as cell growth level at 10 uM after 48 hrs by sulforhodamine B assay; type: functional
SNB-75 = experiment: Cytotoxicity against human SNB75 cells assessed as cell growth level at 10 uM after 48 hrs by sulforhodamine B assay; type: functional
MDA-MB-468 = experiment: Cytotoxicity against human MDA-MB-468 cells assessed as cell growth level at 10 uM after 48 hrs by sulforhodamine B assay; type: functional
[3] = Cytotoxicity against human UO31 cells assessed as cell growth level at 10 uM after 48 hrs by sulforhodamine B assay; type: functional, UO-31
[4] = Cytotoxicity against human NCI-ADR-RES cells assessed as cell growth level at 10 uM after 48 hrs by sulforhodamine B assay; type: functional
NCI-H460 = experiment: Cytotoxicity against human NCI-H460 cells assessed as cell growth level at 10 uM after 48 hrs by sulforhodamine B assay; type: functional
HOP-92 = experiment: Cytotoxicity against human HOP92 cells assessed as cell growth level at 10 uM after 48 hrs by sulforhodamine B assay; type: functional
BT-549 = experiment: Cytotoxicity against human BT549 cells assessed as cell growth level at 10 uM after 48 hrs by sulforhodamine B assay; type: functional
[5] = Cytotoxicity against human OVCAR3 cells assessed as cell growth level at 10 uM after 48 hrs by sulforhodamine B assay; type: functional, OVCAR-3
[6] = Cytotoxicity against human HCT116 cells assessed as cell growth level at 10 uM after 48 hrs by sulforhodamine B assay; type: functional, HCT-116
Malme-3M = experiment: Cytotoxicity against human MALME-3M cells assessed as cell growth level at 10 uM after 48 hrs by sulforhodamine B assay; type: functional
[7] = Cytotoxicity against human SKOV3 cells assessed as cell growth level at 10 uM after 48 hrs by sulforhodamine B assay; type: functional, SK-OV-3
[8] = Cytotoxicity against human OVCAR8 cells assessed as cell growth level at 10 uM after 48 hrs by sulforhodamine B assay; type: functional, OVCAR-8
A498 = experiment: Cytotoxicity against human A498 cells assessed as cell growth level at 10 uM after 48 hrs by sulforhodamine B assay; type: functional
MOLT-4 = experiment: Cytotoxicity against human MOLT4 cells assessed as cell growth level at 10 uM after 48 hrs by sulforhodamine B assay; type: functional
DU-145 = experiment: Cytotoxicity against human DU145 cells assessed as cell growth level at 10 uM after 48 hrs by sulforhodamine B assay; type: functional
SF-539 = experiment: Cytotoxicity against human SF539 cells assessed as cell growth level at 10 uM after 48 hrs by sulforhodamine B assay; type: functional
SK-MEL-2 = experiment: Cytotoxicity against human SK-MEL-2 cells assessed as cell growth level at 10 uM after 48 hrs by sulforhodamine B assay; type: functional
SF-295 = experiment: Cytotoxicity against human SF295 cells assessed as cell growth level at 10 uM after 48 hrs by sulforhodamine B assay; type: functional
CCRF-CEM = experiment: Cytotoxicity against human CCRF-CEM cells assessed as cell growth level at 10 uM after 48 hrs by sulforhodamine B assay; type: functional
LOX IMVI = experiment: Cytotoxicity against human LOXIMVI cells assessed as cell growth level at 10 uM after 48 hrs by sulforhodamine B assay; type: functional
HT-29 = experiment: Cytotoxicity against human HT-29 cells assessed as cell growth level at 10 uM after 48 hrs by sulforhodamine B assay; type: functional
IGROV-1 = experiment: Cytotoxicity against human IGROV1 cells assessed as cell growth level at 10 uM after 48 hrs by sulforhodamine B assay; type: functional
SW-620 = experiment: Cytotoxicity against human SW620 cells assessed as cell growth level at 10 uM after 48 hrs by sulforhodamine B assay; type: functional
[9] = Cytotoxicity against human UACC62 cells assessed as cell growth level at 10 uM after 48 hrs by sulforhodamine B assay; type: functional, UACC-62
MDA-MB-231 = experiment: Cytotoxicity against human MDA-MB-231 cells assessed as cell growth level at 10 uM after 48 hrs by sulforhodamine B assay; type: functional
CAKI-1 = experiment: Cytotoxicity against human CAKI-1 cells assessed as cell growth level at 10 uM after 48 hrs by sulforhodamine B assay; type: functional
A549 = experiment: Cytotoxicity against human A549/ATCC cells assessed as cell growth level at 10 uM after 48 hrs by sulforhodamine B assay; type: functional
HOP-62 = experiment: Cytotoxicity against human HOP62 cells assessed as cell growth level at 10 uM after 48 hrs by sulforhodamine B assay; type: functional
HL-60(TB) = experiment: Cytotoxicity against human HL-60(TB) cells assessed as cell growth level at 10 uM after 48 hrs by sulforhodamine B assay; type: functional
T47D = experiment: Cytotoxicity against human T47D cells assessed as cell growth level at 10 uM after 48 hrs by sulforhodamine B assay; type: functional
[10] = Cytotoxicity against human HCT15 cells assessed as cell growth level at 10 uM after 48 hrs by sulforhodamine B assay; type: functional, HCT-15
U-251 = experiment: Cytotoxicity against human U251 cells assessed as cell growth level at 10 uM after 48 hrs by sulforhodamine B assay; type: functional
MDA-MB-435 = experiment: Cytotoxicity against human MDA-MB-435 cells assessed as cell growth level at 10 uM after 48 hrs by sulforhodamine B assay; type: functional
[11] = Cytotoxicity against human PC3 cells assessed as cell growth level at 10 uM after 48 hrs by sulforhodamine B assay; type: functional, PC-3
[12] = Cytotoxicity against human OVCAR5 cells assessed as cell growth level at 10 uM after 48 hrs by sulforhodamine B assay; type: functional, OVCAR-5
NCI-H23 = experiment: Cytotoxicity against human NCI-H23 cells assessed as cell growth level at 10 uM after 48 hrs by sulforhodamine B assay; type: functional
COLO 205 = experiment: Cytotoxicity against human COLO205 cells assessed as cell growth level at 10 uM after 48 hrs by sulforhodamine B assay; type: functional
SK-MEL-28 = experiment: Cytotoxicity against human SK-MEL-28 cells assessed as cell growth level at 10 uM after 48 hrs by sulforhodamine B assay; type: functional
HCC 2998 = experiment: Cytotoxicity against human HCC2998 cells assessed as cell growth level at 10 uM after 48 hrs by sulforhodamine B assay; type: functional
K562 = experiment: Cytotoxicity against human K562 cells assessed as cell growth level at 10 uM after 48 hrs by sulforhodamine B assay; type: functional
SF-268 = experiment: Cytotoxicity against human SF268 cells assessed as cell growth level at 10 uM after 48 hrs by sulforhodamine B assay; type: functional
KM12 = experiment: Cytotoxicity against human KM12 cells assessed as cell growth level at 10 uM after 48 hrs by sulforhodamine B assay; type: functional
NCI-H226 = experiment: Cytotoxicity against human NCI-H226 cells assessed as cell growth level at 10 uM after 48 hrs by sulforhodamine B assay; type: functional
[13] = Cytotoxicity against human UACC257 cells assessed as cell growth level at 10 uM after 48 hrs by sulforhodamine B assay; type: functional, UACC-257
NCI-H322M = experiment: Cytotoxicity against human NCI-H322M cells assessed as cell growth level at 10 uM after 48 hrs by sulforhodamine B assay; type: functional
RPMI-8226 = experiment: Cytotoxicity against human RPMI8226 cells assessed as cell growth level at 10 uM after 48 hrs by sulforhodamine B assay; type: functional
SK-MEL-5 = experiment: Cytotoxicity against human SK-MEL-5 cells assessed as cell growth level at 10 uM after 48 hrs by sulforhodamine B assay; type: functional
SN12C = experiment: Cytotoxicity against human SN12C cells assessed as cell growth level at 10 uM after 48 hrs by sulforhodamine B assay; type: functional
SNB-19 = experiment: Cytotoxicity against human SNB19 cells assessed as cell growth level at 10 uM after 48 hrs by sulforhodamine B assay; type: functional
MCF7 = experiment: Cytotoxicity against human MCF7 cells assessed as cell growth level at 10 uM after 48 hrs by sulforhodamine B assay; type: functional
ACHN = experiment: Cytotoxicity against human ACHN cells assessed as cell growth level at 10 uM after 48 hrs by sulforhodamine B assay; type: functional
M14 = experiment: Cytotoxicity against human M14 cells assessed as cell growth level at 10 uM after 48 hrs by sulforhodamine B assay; type: functional
NCI-H522 = experiment: Cytotoxicity against human NCI-H522 cells assessed as cell growth level at 10 uM after 48 hrs by sulforhodamine B assay; type: functional
786-0 = experiment: Cytotoxicity against human 786-0 cells assessed as cell growth level at 10 uM after 48 hrs by sulforhodamine B assay; type: functional

CCCSc1nc2cc3c(cc2o1)C(=O)c1ccccc1C3=O
IC50 [1]: > 30 µM

O=C1c2ccccc2C(=O)c2cc3oc(SCc4ccc([N+](=O)[O-])cc4)nc3cc21
IC50 [1]: > 30 µM

CCCCSc1nc2cc3c(cc2o1)C(=O)c1ccccc1C3=O
IC50 [1]: > 30 µM

O=C(CCl)Nc1cc2c(cc1O)C(=O)c1ccccc1C2=O
IC50 [1]: 23.4 µM

O=C(CCN1CCCC1)Nc1cc2c(cc1O)C(=O)c1ccccc1C2=O
Activity [2]: 97.73%
Activity (RXF 393): 103.62%
Activity (SNB-75): 89.48%
Activity (MDA-MB-468): 93.65%
Activity [3]: 79.74%
Activity [4]: 103.64%
Activity (NCI-H460): 101.03%
Activity (HOP-92): 83.51%
Activity (BT-549): 96.56%
Activity [5]: 108.53%
Activity [6]: 98.96%
Activity (Malme-3M): 142.32%
Activity [7]: 104.33%
Activity [8]: 100.18%
Activity (A498): 86.98%
Activity (MOLT-4): 114.86%
Activity (DU-145): 105.86%
Activity (SF-539): 98.8%
IC50 [1]: > 30 µM
Activity (SK-MEL-2): 102.06%
Activity (SF-295): 93.19%
Activity (CCRF-CEM): 87.09%
Activity (LOX IMVI): 107.45%
Activity (HT-29): 67.12%
Activity (IGROV-1): 112.79%
Activity (SW-620): 106.36%
Activity [9]: 94.37%
Activity (MDA-MB-231): 92.22%
Activity (CAKI-1): 82.42%
Activity (A549): 98.4%
Activity (HOP-62): 98.3%
Activity (HL-60(TB)): 103.96%
Activity (T47D): 74.5%
Activity [10]: 97.11%
Activity (U-251): 95.72%
Activity (MDA-MB-435): 103.97%
Activity [11]: 91.56%
Activity [12]: 100.56%
Activity (NCI-H23): 91.17%
Activity (COLO 205): 118.26%
Activity (SK-MEL-28): 104.99%
Activity (HCC 2998): 98.08%
Activity (K562): 106.34%
Activity (SF-268): 97.79%
Activity (KM12): 106.65%
Activity (NCI-H226): 89.38%
Activity [13]: 113%
Activity (NCI-H322M): 108.8%
Activity (RPMI-8226): 86.61%
Activity (SK-MEL-5): 102.47%
Activity (SN12C): 100.6%
Activity (SNB-19): 96.45%
Activity (MCF7): 56.43%
Activity (ACHN): 82.72%
Activity (M14): 96.96%
Activity (NCI-H522): 89.35%
Activity (786-0): 99.72%

CSc1nc2cc3c(cc2o1)C(=O)c1ccccc1C3=O
IC50 [1]: > 30 µM

O=C1c2ccccc2C(=O)c2cc3oc(SCc4ccccc4[N+](=O)[O-])nc3cc21
IC50 [1]: > 30 µM

O=C(CN1CCCC1)Nc1cc2c(cc1O)C(=O)c1ccccc1C2=O
IC50 [1]: 26 µM

O=C1COc2cc3c(cc2N1)C(=O)c1ccccc1C3=O
IC50 [1]: > 30 µM

O=C1c2ccccc2C(=O)c2cc3oc(SCc4ccc(F)cc4F)nc3cc21
IC50 [1]: > 30 µM

O=C1c2ccccc2C(=O)c2cc3oc(SCCN4CCCCC4)nc3cc21
IC50 [1]: 21.8 µM

O=C1c2ccccc2C(=O)c2cc3oc(SCc4ccccc4)nc3cc21
IC50 [1]: > 30 µM
